This is an account of results in patent US8415356B2, “Isoquinolinone derivatives as NK3 antagonists” (H. Lundbeck A/S, priority 2008, dated 2013).

One experiment deals with T1, human NK3 receptor (Homo sapiens, UniProt P29371).
T1 construct: expressed in transfected cells; membranes prepared from them
T1 sequence (P29371 1-465): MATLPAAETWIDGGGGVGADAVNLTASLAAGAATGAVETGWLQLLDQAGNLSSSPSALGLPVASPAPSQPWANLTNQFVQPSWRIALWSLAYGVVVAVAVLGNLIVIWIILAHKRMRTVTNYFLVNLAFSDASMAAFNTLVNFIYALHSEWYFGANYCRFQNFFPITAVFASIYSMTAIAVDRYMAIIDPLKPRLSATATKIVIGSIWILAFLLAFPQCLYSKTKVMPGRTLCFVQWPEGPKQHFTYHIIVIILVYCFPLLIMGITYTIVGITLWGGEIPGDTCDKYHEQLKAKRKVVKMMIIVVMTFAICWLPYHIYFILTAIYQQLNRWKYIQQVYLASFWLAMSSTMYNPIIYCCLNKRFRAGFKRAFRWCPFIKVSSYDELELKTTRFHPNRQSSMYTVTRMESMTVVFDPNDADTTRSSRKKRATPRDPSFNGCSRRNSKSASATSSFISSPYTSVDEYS
In words: NK3 receptor binding assay (SPA-based competition binding with 125I-NKB). Conditions: read-out: Affinity Ki/nM. The method, then: Membrane preparation: BHK cells stably expressing the human NK3 receptor were seeded in harvesting plates in Dulbeccos MEM containing GlutaMax (862 mg/l), 1 mM sodium pyruvate, 10% fetal calf serum, 1% Pen/Strep, 1 mg/ml G418 and were grown at 34° C. in a humidified atmosphere containing 10% CO2. To increase receptor expression, 10 μM trichotatin A was added to the media 24 hours before harvest of the cells at a confluency of app 90%. Prior to the harvesting, the cells were washed twice with PBS without Mg^2+ og Ca^2+ and subsequently scrapped of in 10 ml PBS pr harvesting plate. The cells suspension were centrifuged at 1500×G in three minutes before resuspension in 15 mM Tris-HCl pH 7.5 buffer containing 2 mM MgCl2; 0.3 mM EDTA and 1 mM EGTA (buffer A). The cell suspention was homogenised and subsequently centrifuged at 40000×G in 30 minutes. The membrane-pellet was resuspended in buffer A containing 250 mM sucrose, aliquoted and stored at −80° C.
Affinity assay description: The assay was performed as a SPA-based competition-binding assay in a 50 mM Tris pH 7.4 assay buffer containing 120 mM NaCl, 3 mM MnCl2, 40 μg/ml bacitracin, 2 μg/ml Chymostatin, 1 μg/ml Phosphoramidon and 4 μg/ml Leupeptin. […] The assay plate was subsequently under agitation incubated for 90 min at RT. The plate was centrifugated 10 minutes at 500×G and counted in a topcounter 5 minutes pr well.

For experiment [1] the following is noted: versus placebo; delusions, hallucinations and paranoia; cited from earlier work.
The conditions of experiment [2]: schizophrenics; cited from earlier work.

With `Cc1c(C(=O)N[C@H](c2cccc(F)c2)C2CC2)c2cccc(F)c2c(=O)n1-n1cccc1` [2ac, 8-Fluoro-3-methyl-1-oxo-2-pyrrol-1-yl-1,2-dihydro-isoquinoline-4-carboxylic acid [(S)-cyclopropyl-(3-fluoro-phenyl)-methyl]-amide], the Ki on human NK3 receptor amounted to 96 nM.
The same measure, in the same setting: for `Cc1c(C(=O)N[C@H](c2cccc(F)c2)C2CC2)c2cccc(F)c2c(=O)n1-c1ccccn1` [2b, 8-Fluoro-3-methyl-1-oxo-2-pyridin-2-yl-1,2-dihydro-isoquinoline-4-carboxylic acid [(S)-cyclopropyl-(3-fluoro-phenyl)-methyl]-amide] the value was 150 nM; for `Cc1c(C(=O)N[C@H](c2cccc(F)c2)C2CC2)c2cccc(F)c2c(=O)n1-c1ccc(Cl)nc1` [2d, 2-(6-Chloro-pyridin-3-yl)-8-fluoro-3-methyl-1-oxo-1,2-dihydro-isoquinoline-4-carboxylic acid [(S)-cyclopropyl-(3-fluoro-phenyl)-methyl]-amide], 120 nM.
Still for that read-out and setting: the result for `Cc1c(C(=O)N[C@H](c2cccc(F)c2)C2CC2)c2cccc(F)c2c(=O)n1-c1cncnc1` [2k, 8-Fluoro-3-methyl-1-oxo-2-pyrimidin-5-yl-1,2-dihydro-isoquinoline-4-carboxylic acid [(S)-cyclopropyl-(3-fluoro-phenyl)-methyl]-amide] reads 110 nM; that for `Cc1ccc(-n2c(C)c(C(=O)N[C@H](c3cccc(F)c3)C3CC3)c3cccc(F)c3c2=O)cn1` [2l, 8-Fluoro-3-methyl-2-(6-methyl-pyridin-3-yl)-1-oxo-1,2-dihydro-isoquinoline-4-carboxylic acid [(S)-cyclopropyl-(3-fluoro-phenyl)-methyl]-amide], 220 nM; that for `Cc1csc(-n2c(C)c(C(=O)N[C@H](c3cccc(F)c3)C3CC3)c3cccc(F)c3c2=O)n1` [2r, 8-Fluoro-3-methyl-2-(4-methyl-thiazol-2-yl)-1-oxo-1,2-dihydro-isoquinoline-4-carboxylic acid [(S)-cyclopropyl-(3-fluoro-phenyl)-methyl]-amide], 150 nM.
The same measure, in the same setting: the result for `Cc1c(C(=O)N[C@H](c2cccc(F)c2)C2CC2)c2cccc(F)c2c(=O)n1-n1cnnc1` [2u, 8-Fluoro-3-methyl-1-oxo-2-[1,2,4]triazol-4-yl-1,2-dihydro-isoquinoline-4-carboxylic acid [(S)-cyclopropyl-(3-fluoro-phenyl)-methyl]-amide] reads 200 nM; that for `CCc1nnc(-n2c(C)c(C(=O)N[C@H](c3cccc(F)c3)C3CC3)c3cccc(F)c3c2=O)s1` [2v, 2-(5-Ethyl-[1,3,4]thiadiazol-2-yl)-8-fluoro-3-methyl-1-oxo-1,2-dihydro-isoquinoline-4-carboxylic acid [(S)-cyclopropyl-(3-fluoro-phenyl)-methyl]-amide], 210 nM; that for `Cc1c(C(=O)N[C@H](c2cccc(F)c2)C2CCC2)c2cccc(F)c2c(=O)n1-c1ccn(C)n1` [3f, 8-Fluoro-3-methyl-2-(1-methyl-1H-pyrazol-3-yl)-1-oxo-1,2-dihydro-isoquinoline-4-carboxylic acid [(S)-cyclobutyl-(3-fluoro-phenyl)-methyl]-amide], 71 nM.
Consider `Cc1c(C(=O)N[C@H](c2ccccc2)C2CCC2)c2cccc(F)c2c(=O)n1-c1cccnc1` [4a, 8-Fluoro-3-methyl-1-oxo-2-pyridin-3-yl-1,2-dihydro-isoquinoline-4-carboxylic acid ((S)-cyclobutyl-phenyl-methyl)-amide], for which the Ki at human NK3 receptor was determined as 18 nM.
On the same count and under the same terms, the result for `CC(C)(C)N1CCN(Cc2c(C(=O)N[C@H](c3cccc(F)c3)C3CC3)c3cccc(F)c3c(=O)n2-c2cccnc2)CC1` [6a, 3-(4-tert-Butyl-piperazin-1-ylmethyl)-8-fluoro-1-oxo-2-pyridin-3-yl-1,2-dihydro-isoquinoline-4-carboxylic acid [(S)-cyclopropyl-(3-fluoro-phenyl)-methyl]-amide] reads 13 nM.
As for `O=C(N[C@H](c1cccc(F)c1)C1CC1)c1c(CN2CCCC2=O)n(-c2cccnc2)c(=O)c2c(F)cccc12` [6b, 8-Fluoro-1-oxo-3-(2-oxo-pyrrolidin-1-ylmethyl)-2-pyridin-3-yl-1,2-dihydro-isoquinoline-4-carboxylic acid [(S)-cyclopropyl-(3-fluoro-phenyl)-methyl]-amide], the Ki at human NK3 receptor turned out to be 110 nM.
On the same count and under the same terms, for `Cc1c(C(=O)N[C@H](c2cccc(F)c2)C2CCC2)c2cc(F)cc(F)c2c(=O)n1-c1cccnc1` [7c, 6,8-Difluoro-3-methyl-1-oxo-2-pyridin-3-yl-1,2-dihydro-isoquinoline-4-carboxylic acid [(S)-cyclobutyl-(3-fluoro-phenyl)-methyl]-amide] the value was 15 nM; for `Cc1c(C(=O)N[C@H](c2cccc(F)c2)C2CC2)c2cccc(O)c2c(=O)n1-c1cccnc1` [8a, 8-Hydroxy-3-methyl-1-oxo-2-pyridin-3-yl-1,2-dihydro-isoquinoline-4-carboxylic acid [(S)-cyclopropyl-(3-fluoro-phenyl)-methyl]-amide], 33 nM.
As for `CC(=O)N(C)C1(c2ccccc2)CCN(CCC[C@]2(c3ccc(Cl)c(Cl)c3)CCCN(C(=O)c3ccccc3)C2)CC1` [Osanetant, osanetant], in experiment [1], the “effect in clinical trials, in particular on positive symptoms of psychosis” value is given as “superior to placebo”.
For `CC[C@H](NC(=O)c1c(O)c(-c2ccccc2)nc2ccccc12)c1ccccc1` [talnetant], the “effect in clinical trials on cognitive behaviour” value in experiment [2] was “ameliorate the cognitive behaviour”.
